Experimental findings from US12319672B2, “Alpha-D-galactopyranoside derivatives” (Idorsia Pharmaceuticals Ltd, priority 2019, dated 2025) are described below.

What is called IC50 is the midpoint of a concentration-inhibition curve. Higher therefore signals a need for much substance.

In one experiment the target is human Gal-3 (hGal-3) (Homo sapiens (Human), UniProt P17931). Kind of experiment: Competitive binding assay: binding of biotinylated hGal-3 to microplate-adsorbed asialofetuin (ASF). Particulars: Activity on hGal-3; mean values of several measurements. The protocol:
(§1) Evaluation of Compound Inhibitory Activity (IC50)
(§2) The inhibitory activity of compounds is determined in competitive binding assays. This spectrophotometric assay measures the binding of biotinylated human Gal-3 (hGal-3) or human Gal-1 (hGal-1), respectively, to a microplate-adsorbed glycoprotein, asialofetuin (ASF) (Proc Natl Acad Sci USA. 2013 Mar. 26; 110(13):5052-7.). Alternatively, and preferably, a human Gal-1 version in which all six cysteines are substituted by serines may be used.
(§3) Briefly, compounds are serially diluted in DMSO (working dilutions). ASF-coated 384 well plates are supplemented with 22.8 μL/well of biotinylated hGal-3 or hGal-1 in assay buffer (i.e. 300-1000 ng/mL biotinylated hGal-3 or hGal-1) to which 1.2 μL of compound working dilutions are added and mixed.
(§4) Plates are incubated for 3 hours at 4° C., then washed with cold assay buffer (3×50 uL), incubated for 1 hour with 25 μL/well of a streptavidin-peroxidase solution (diluted in assay buffer to 80 ng/mL) at 4° C., followed by further washing steps with assay buffer (3×50 uL). Finally, 25 μL/well of ABTS substrate is added.
(§5) The calculated IC50 values may fluctuate depending on the daily assay performance. Fluctuations of this kind are known to those skilled in the art. IC50 values from several measurements are given as mean values.

The next experiment concerns the target human Gal-1 (hGal-1). In words: Competitive binding assay: binding of biotinylated hGal-1 to microplate-adsorbed asialofetuin (ASF). Conditions: Activities on hGal-1; mean values of several measurements. The protocol: as §1, §2, §3, §4, §5

Sequence of human Gal-1 (hGal-1) (P09382 2-135 limits assumed): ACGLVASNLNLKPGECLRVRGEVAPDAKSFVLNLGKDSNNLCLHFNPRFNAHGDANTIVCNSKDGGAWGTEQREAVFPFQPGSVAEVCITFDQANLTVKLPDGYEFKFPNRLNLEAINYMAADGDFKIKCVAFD
Sequence of human Gal-3 (hGal-3) (P17931 whole entry): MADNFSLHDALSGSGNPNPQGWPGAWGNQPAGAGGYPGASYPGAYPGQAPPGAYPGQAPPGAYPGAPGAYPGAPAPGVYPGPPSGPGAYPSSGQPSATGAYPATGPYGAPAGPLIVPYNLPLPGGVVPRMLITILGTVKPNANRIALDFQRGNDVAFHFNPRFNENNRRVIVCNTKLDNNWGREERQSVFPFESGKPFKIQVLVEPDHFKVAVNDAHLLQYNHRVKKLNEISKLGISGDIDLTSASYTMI

As for `CO[C@@H]1[C@@H](n2cc(-c3ccc(C)c(F)c3F)nn2)[C@@H](O)[C@@H](CO)O[C@@H]1Cc1cc(C(O)(c2ccccn2)C2CC2)on1` (stereo partly drawn) [Ex 1.317], the IC50 at human Gal-3 (hGal-3) was determined as 310 nM; at human Gal-1 (hGal-1), 9690 nM.
Turning to `CC(C)(C)OC(=O)N1CCC(C2=NOC(C[C@H]3O[C@H](CO)[C@H](O)[C@H](n4cc(-c5cc(Cl)ccc5Cl)nn4)[C@H]3O)C2)CC1` (stereo partly drawn) [Ex 1.105], the IC50 at human Gal-3 (hGal-3) came to 1680 nM; on human Gal-1 (hGal-1), 2340 nM.
In the case of `CO[C@@H]1[C@@H](n2cc(-c3cc(F)c(F)c(F)c3)nn2)[C@@H](O)[C@@H](CO)O[C@@H]1CN1CC(=O)N(C2CCN(C(C)=O)CC2)C1` [Example 6.08, 3-(1-acetylpiperidin-4-yl)-1-(((2R,3R,4S,5R,6R)-5-hydroxy-6-(hydroxymethyl)-3-methoxy-4-(4-(3,4,5-trifluorophenyl)-1H-1,2,3-triazol-1-yl)tetrahydro-2H-pyran-2-yl)methyl)imidazolidin-4-one], the IC50 at human Gal-3 (hGal-3) amounted to 22 nM; at human Gal-1 (hGal-1), 73 nM.
As for `CO[C@@H]1[C@@H](n2cc(-c3ccc(Cl)c(F)c3)nn2)[C@@H](O)[C@@H](CO)O[C@@H]1Cc1cc(C2CCN(S(C)(=O)=O)CC2)on1` [Ex 1.156], the values for the IC50 at human Gal-3 (hGal-3) and at human Gal-1 (hGal-1) were 31 nM and 940 nM, respectively.
For `CO[C@@H]1[C@@H](n2cc(-c3cc(F)cc(F)c3)nn2)[C@@H](O)[C@@H](CO)O[C@@H]1Cc1cc(C2CCN(C(=O)OC(C)(C)C)CC2)no1` [Ex 1.126], the IC50 on human Gal-3 (hGal-3) was determined as 81 nM; at human Gal-1 (hGal-1), 440 nM.
Regarding `CO[C@@H]1[C@@H](n2cc(-c3ccc(C)c(F)c3F)nn2)[C@@H](O)[C@@H](CO)O[C@@H]1Cc1cc(C2CCC(=O)N(C)CC2)no1` (stereo partly drawn) [Ex 1.345], the IC50 worked out at 44 nM at human Gal-3 (hGal-3) and 720 nM on human Gal-1 (hGal-1).
Turning to `CO[C@@H]1[C@@H](n2cc(-c3cc(F)c(F)c(F)c3)nn2)[C@@H](O)[C@@H](CO)O[C@@H]1Cc1cc(C2CCN(S(=O)(=O)N3CCCC3)CC2)on1` [Example 3.64, (2R,3R,4S,5R,6R)-2-(hydroxymethyl)-5-methoxy-6-((5-(1-(pyrrolidin-1-ylsulfonyl)piperidin-4-yl)isoxazol-3-yl)methyl)-4-(4-(3,4,5-trifluorophenyl)-1H-1,2,3-triazol-1-yl)tetrahydro-2H-pyran-3-ol], the IC50 on human Gal-3 (hGal-3) amounted to 25 nM; on human Gal-1 (hGal-1), 760 nM.
On to `CO[C@@H]1[C@@H](n2cc(-c3ccc(Cl)c(F)c3)nn2)[C@@H](O)[C@@H](CO)O[C@@H]1Cc1cc(C2CCN(C(=O)OC(C)(C)C)CC2)no1` [Ex 1.124], for which the IC50 at human Gal-3 (hGal-3) amounted to 31 nM; at human Gal-1 (hGal-1) it was 800 nM.
The corresponding values for `COc1ccc(-c2cn([C@H]3[C@@H](O)[C@@H](CO)O[C@H](CC4CC(C5CCN(C(=O)OC(C)(C)C)CC5)=NO4)[C@@H]3O)nn2)cc1` (stereo partly drawn) [Ex 1.113] are 1060 nM and 640 nM.
On to `CCOC(=O)N1CCC(c2cc(C[C@H]3O[C@H](CO)[C@H](O)[C@H](n4cc(-c5ccc(F)c(F)c5F)nn4)[C@H]3OC)no2)CC1` [Ex 1.150], for which the half-maximal inhibitory concentration (IC50) on human Gal-3 (hGal-3) was determined as 23 nM; on human Gal-1 (hGal-1), 140 nM.
In the case of `CO[C@@H]1[C@@H](n2cc(-c3ccc(C)c(F)c3F)nn2)[C@@H](O)[C@@H](CO)O[C@@H]1Cc1cc(C2CCC2)on1` [Ex 1.224], the IC50 is 70 nM on human Gal-3 (hGal-3) and 14100 nM on human Gal-1 (hGal-1).
With `COc1ccc(F)cc1-c1cn([C@H]2[C@@H](O)[C@@H](CO)O[C@H](CC3CC(C4CCN(C(=O)OC(C)(C)C)CC4)=NO3)[C@@H]2O)nn1` (stereo partly drawn) [Ex 1.96], the IC50 at human Gal-3 (hGal-3) came out at 1740 nM; at human Gal-1 (hGal-1), 8650 nM.
Take `OC[C@H]1O[C@H](C[C@H]2CC(C3CCCCC3)=NO2)[C@H](O)[C@@H](n2cc(-c3cc(F)c(F)c(F)c3)nn2)[C@H]1O` [Ex 1.06]: the IC50 at human Gal-3 (hGal-3) was 1800 nM; on human Gal-1 (hGal-1) it was 22200 nM.
Consider `CO[C@@H]1[C@@H](n2cc(-c3ccc(C)c(F)c3F)nn2)[C@@H](O)[C@@H](CO)O[C@@H]1Cc1cc(C2CCN(C(C)=O)CC2)on1` [Ex 1.168], for which the IC50 at human Gal-3 (hGal-3) worked out at 29 nM; on human Gal-1 (hGal-1), 930 nM.
Turning to `CO[C@@H]1[C@@H](n2cc(-c3cc(F)c(F)c(F)c3)nn2)[C@@H](O)[C@@H](CO)O[C@@H]1C[C@H]1CC(c2ccc3[nH]c(=O)oc3c2)=NO1` [Ex 1.29], the values for the half-inhibitory concentration (IC50) at human Gal-3 (hGal-3) and on human Gal-1 (hGal-1) were 2140 nM and greater than 100000 nM, respectively.
Regarding `O=c1cc(C2=NO[C@@H](C[C@H]3O[C@H](CO)[C@H](O)[C@H](n4cc(-c5cc(F)c(F)c(F)c5)nn4)[C@H]3O)C2)cc[nH]1` [Example 2.04, 4-((R)-5-(((2R,3R,4R,5R,6R)-3,5-dihydroxy-6-(hydroxymethyl)-4-(4-(3,4,5-trifluorophenyl)-1H-1,2,3-triazol-1-yl)tetrahydro-2H-pyran-2-yl)methyl)-4,5-dihydroisoxazol-3-yl)pyridin-2(1H)-one], the IC50 at human Gal-3 (hGal-3) is 910 nM; on human Gal-1 (hGal-1), 12300 nM.
The matching figures for `CO[C@@H]1[C@@H](n2cc(-c3cc(F)c(F)c(F)c3)nn2)[C@@H](O)[C@@H](CO)O[C@@H]1Cc1cc(C2CCN(C(=O)N3CCN(C)CC3)CC2)on1` [Example 3.70, (4-(3-(((2R,3R,4S,5R,6R)-5-hydroxy-6-(hydroxymethyl)-3-methoxy-4-(4-(3,4,5-trifluorophenyl)-1H-1,2,3-triazol-1-yl)tetrahydro-2H-pyran-2-yl)methyl)isoxazol-5-yl)piperidin-1-yl)(4-methylpiperazin-1-yl)methanone]: 84 nM and 820 nM.
As for `CO[C@@H]1[C@@H](n2cc(-c3ccc(C)c(F)c3F)nn2)[C@@H](O)[C@@H](CO)O[C@@H]1Cc1cc(C(C)(C)O)on1` [Ex 1.237], the results for the 50% inhibitory concentration (IC50) on human Gal-3 (hGal-3) and at human Gal-1 (hGal-1) were 75 nM and 4220 nM, respectively.
The corresponding values for `CO[C@@H]1[C@@H](n2cc(-c3cc(F)c(F)c(F)c3)nn2)[C@@H](O)[C@@H](CO)O[C@@H]1C[C@H]1CC(C2CCNCC2)=NO1` [Example 3.07, (2R,3R,4S,5R,6R)-2-(hydroxymethyl)-5-methoxy-6-(((R)-3-(piperidin-4-yl)-4,5-dihydroisoxazol-5-yl)methyl)-4-(4-(3,4,5-trifluorophenyl)-1H-1,2,3-triazol-1-yl)tetrahydro-2H-pyran-3-ol] are 1860 nM and 15100 nM.
Turning to `CO[C@@H]1[C@@H](n2cc(-c3cc(F)c(F)c(F)c3)nn2)[C@@H](O)[C@@H](CO)O[C@@H]1CC1CC(C2CCN(C(C)=O)CC2)=NO1` (mixture of isomers) [Example 3.05, 1-(4-((RS)-5-(((2R,3R,4S,5R,6R)-5-hydroxy-6-(hydroxymethyl)-3-methoxy-4-(4-(3,4,5-trifluorophenyl)-1H-1,2,3-triazol-1-yl)tetrahydro-2H-pyran-2-yl)methyl)-4,5-dihydroisoxazol-3-yl)piperidin-1-yl)ethan-1-one], the IC50 at human Gal-3 (hGal-3) was 290 nM; on human Gal-1 (hGal-1), 1860 nM.
In the case of `CO[C@@H]1[C@@H](n2cc(-c3cc(F)c(F)c(F)c3)nn2)[C@@H](O)[C@@H](CO)O[C@@H]1C[C@H]1CC(C2CCN(S(=O)(=O)C(C)C)CC2)=NO1` [Example 3.60, (2R,3R,4S,5R,6R)-2-(hydroxymethyl)-6-(((R)-3-(1-(isopropylsulfonyl)piperidin-4-yl)-4,5-dihydroisoxazol-5-yl)methyl)-5-methoxy-4-(4-(3,4,5-trifluorophenyl)-1H-1,2,3-triazol-1-yl)tetrahydro-2H-pyran-3-ol], the 50% inhibitory concentration (IC50) on human Gal-3 (hGal-3) was 370 nM; at human Gal-1 (hGal-1), 5100 nM.
Turning to `CO[C@@H]1[C@@H](n2cc(-c3ccc(F)c(F)c3F)nn2)[C@@H](O)[C@@H](CO)O[C@@H]1Cc1cc(C2(C)CC2)no1` [Ex 1.251], the half-maximal inhibitory concentration (IC50) stood at 44 nM on human Gal-3 (hGal-3) and 360 nM at human Gal-1 (hGal-1).
For `Cc1ccc(-c2cn([C@H]3[C@@H](O)[C@@H](CO)O[C@H](Cc4cc(C5(C)COC5)no4)[C@@H]3O)nn2)c(F)c1F` [Ex 1.335], the IC50 at human Gal-3 (hGal-3) stood at 26 nM; on human Gal-1 (hGal-1) it was 3780 nM.
As for `OC[C@H]1O[C@H](Cc2cc(C3CC3)on2)[C@H](O)[C@@H](n2cc(-c3cc(F)c(F)c(F)c3)nn2)[C@H]1O` [Ex 1.52], the IC50 came out at 500 nM on human Gal-3 (hGal-3) and 7980 nM on human Gal-1 (hGal-1).
As to `CCNC(=O)N1CCC(c2cc(C[C@H]3O[C@H](CO)[C@H](O)[C@H](n4cc(-c5cc(F)c(F)c(F)c5)nn4)[C@H]3OC)no2)CC1` [Example 3.37, N-ethyl-4-(3-(((2R,3R,4S,5R,6R)-5-hydroxy-6-(hydroxymethyl)-3-methoxy-4-(4-(3,4,5-trifluorophenyl)-1H-1,2,3-triazol-1-yl)tetrahydro-2H-pyran-2-yl)methyl)isoxazol-5-yl)piperidine-1-carboxamide], the IC50 amounted to 97 nM at human Gal-3 (hGal-3) and 1090 nM at human Gal-1 (hGal-1).
Regarding `CO[C@@H]1[C@@H](n2cc(-c3cc(F)c(F)c(F)c3)nn2)[C@@H](O)[C@@H](CO)O[C@@H]1Cc1cc(C2(OC)CCCCC2)no1` [Ex 1.210], the IC50 was determined as 290 nM at human Gal-3 (hGal-3) and 2730 nM on human Gal-1 (hGal-1).
In the case of `CO[C@@H]1[C@@H](n2cc(-c3cc(F)c(F)c(F)c3)nn2)[C@@H](O)[C@@H](CO)O[C@@H]1CC1=NOC(C(C)(C)C)C1` (stereo partly drawn) [Ex 1.66], the IC50 was determined as 1080 nM on human Gal-3 (hGal-3) and 3760 nM at human Gal-1 (hGal-1).
